Experimental data from ChEMBL document CHEMBL1127863, “New nonpeptide angiostensin II receptor antagonists. Synthesis, biological properties and structure-activity relationships of 3-substituted 2,6-dialkyl-4-(biphenyll)methylaminopyridine derivatives” (Bioorg Med Chem Lett, 1994).

Experiments:
Rattus norvegicus = test: Effective dose following intravenous administration to conscious rats for inhibition of AII-induced pressor response; assay type: functional
[1] = target: Angiotensin II receptor (Cavia porcellus); test: Inhibition of [125I]AII binding to guinea pig adrenal membrane

SMILES | IC50 [1] | ED50 (Rattus norvegicus)
CCc1cc(OCc2ccc(-c3ccccc3-c3nn[nH]n3)cc2)c2ccccc2n1 |  | 1 mg/kg
COC(=O)c1c(NCc2ccc(-c3ccccc3-c3nn[nH]n3)cc2)cc(C)nc1C | 8.03 nM | 
CCc1cc(NCc2ccc(-c3ccccc3-c3nn[nH]n3)cc2)c(Cl)c(CC)n1 | 7.58 nM | 0.06 mg/kg
CCc1cc(NCc2ccc(-c3ccccc3-c3nn[nH]n3)cc2)c(Br)c(CC)n1 | 3.83 nM | 0.09 mg/kg
CCc1cc(NCc2ccc(-c3ccccc3-c3nn[nH]n3)cc2)c(-c2ccc(C)cc2)c(CC)n1 | 24.9 nM | 
Cc1cc(NCc2ccc(-c3ccccc3-c3nn[nH]n3)cc2)c(I)c(C)n1 | 3.48 nM | 0.05 mg/kg
CCc1cc(OCc2ccc(-c3ccccc3-c3nn[nH]n3)cc2)c2c(n1)CCCC2 |  | 0.39 mg/kg
CCCCc1nc(Cl)c(CO)n1Cc1ccc(-c2ccccc2-c2nnn[nH]2)cc1 [LOSARTAN] |  | 0.65 mg/kg

Second part, led by results:

IC50 [1] | SMILES | ED50 (Rattus norvegicus)
14 nM | CCc1cc(OCc2ccc(-c3ccccc3-c3nn[nH]n3)cc2)c(I)c(CC)n1 | 0.44 mg/kg
26.4 nM | CCc1cc(NCc2ccc(-c3ccccc3-c3nn[nH]n3)cc2)c(-c2ccc(C(F)(F)F)cc2)c(CC)n1 | 
6.21 nM | CCc1cc(NCc2ccc(-c3ccccc3-c3nn[nH]n3)cc2)c(C(=O)OC)c(CC)n1 | 
2.64 nM | CCc1cc(NCc2ccc(-c3ccccc3-c3nn[nH]n3)cc2)c(I)c(CC)n1 | 0.13 mg/kg
6.65 nM | Cc1cc(NCc2ccc(-c3ccccc3-c3nn[nH]n3)cc2)c(Cl)c(C)n1 | 0.03 mg/kg
